According to US10881623B2, “Compositions for the management of hyperglycemia and related conditions” (SAMI LABS LIMITED, priority 2017, dated 2021):

Experiments:
α-glucosidase = target: T1, α-glucosidase (Saccharomyces cerevisiae, UniProt P53341); experiment: α-glucosidase inhibition (paranitrophenyl-α-d-glucopyranoside substrate); assay type: biochemical; conditions: enzyme 0.15 U/ml, substrate 1.25 mM, absorbance 405 nm
T1 construct: purchased Sigma-Aldrich G5003
Description: For glucosidase inhibition, α-glucosidase (Code G5003; Sigma-Aldrich, St. Louis, Mo., USA) was dissolved in 67 mM potassium phosphate buffer, pH 6.8, containing 8 containing 0.2% Bovine Serum Albumin (Sigma-Aldrich) & 0.02% sodium azide (Sigma-Aldrich) which was used as enzyme source. Paranitrophenyl-α-d-glucopyranoside (Sigma-Aldrich) was used as substrate. Thymoquinone, thymohydroquinone and composition containing thymohydroquinone were weighed prepared at concentration of 63, 125, 250 and 500 μg/ml and were made up with equal volumes of distilled water. 50 μl of said composition was incubated for 5 min with 50 μl enzyme source (0.15 U/ml). After incubation, 50 μl of substrate (1.25 mM) was added and further incubated for 20 min at room temperature. Presubstrate and post-substrate addition, absorbance was measured at 405 nm on a microplate reader (BMG FLUOstar OPTIMA Microplate Reader). The increase in absorbance on substrate addition was obtained. Each test was performed three times and the mean absorption was used to calculate percentage α-glucosidase inhibition. Acarbose was used as positive control with various concentrations. The inhibitory activities of varying concentrations of said composition were expressed as 100 minus the absorbance difference (%) of the said composition relative to the absorbance change of the negative control (i.e., water used as the test solution). […]

[1] = tested on: Muscle cells (C2C12 myotubes); experiment: Glucose uptake (2-NBDG, flow cytometry) in differentiated C2C12 myotubes; assay type: cell-based; conditions: compared to thymoquinone; FIG. 2
Description: The skeletal muscle cell line C2C12 myoblasts (procured from ATCC) were maintained in DMEM supplemented with 10% Fetal Bovine Serum at 37° C. with 5% CO2. Twenty thousand cells per well were seeded in a 24 well plate. When the cells reached 80-90% confluence, differentiation was induced by replacing the growth medium with DMEM containing 1% horse serum. Experiments were performed in completely differentiated C2C12 myotubes after 4-5 days in differentiation medium. Cells were then treated with 0.5% BSA in low glucose media for 16 hours and washed with cold Krebs-Ringer phosphate buffer without glucose. Cells were then treated with different non cytotoxic concentrations of samples in low glucose DMEM media with or without insulin at a concentration of 0.1 μM for 30 minutes at 37° C. Cells were then washed with cold PBS and stained with 5 μM of a fluorescent D-glucose analog 2-[N-(7-nitrobenz-2-oxa-1,3-diazol-4-yl) amino]-2-deoxy-D-glucose (2-NBDG) for 15 minutes in dark followed by flow cytometric detection of fluorescence produced by the cells.

Adipocytes = experiment: Glucose uptake in adipocytes; assay type: cell-based; conditions: compared to thymoquinone; FIG. 2
[2] = DPPH radical scavenging assay; conditions: concentration reducing DPPH absorbance by 50%
Description: DPPH is a stable free radical in a methanolic solution with an absorbance at 520 nm. If the free radicals are scavenged by an anti oxidant molecule, the resulting solution appears yellow. The hydrogen atoms or electrons donation ability of the extracellular metabolite was measured by the bleaching of purple coloured DPPH methanol solution.
Thymoquinone, Thymohydroquinone and the composition comprising thymohydroquinone were prepared in varying concentrations. For the DPPH radical scavenging assay, 20 μL of test material was mixed with 180 μL of DPPH in methanol in a 96 well plate following the method as described earlier (Clarke et al., 2013). The plate was kept in the dark for 15 min, after which the absorbance of the solution was measured at 540 nm using a microplate reader (TECAN Ltd, Männedorf, Switzerland). Blanks (DMSO, methanol) and standard (Trolox solution in DMSO) were recorded simultaneously. The extracts were screened with variable concentrations to establish the inhibition concentration (IC50, the concentration reducing DPPH absorbance by 50%).
The free radical scavenging activity was calculated as follows,
Where, • B=Absorbance of reference solution (OD of DPPH) • C=Absorbance of reference solution, blank (OD of Methanol only) • S=Absorbance of test solution • […]

TNF-α = TNF-α secretion by LPS-stimulated THP-1 cells (ELISA); assay type: cell-based, human; conditions: for inhibition at 0.03 µg/mL / inhibition at 0.06 µg/mL / inhibition at 0.13 µg/mL: Homo sapiens, THP-1, LPS 0.1 μg/mL, 24 hour; for inhibition at 0.03 µg/mL: 0.03 μg/mL; for inhibition at 0.06 µg/mL: 0.06 μg/mL; for inhibition at 0.13 µg/mL: 0.13 μg/mL
Description: Cells: THP1-human monocytes purchased from American Type Culture Collection (ATCC, Manassas, Va.) and maintained as a monolayer culture in Rosewell park memorial institute Medium (RMPI Life technologies, CA, USA.) supplemented with 10% (v/v) heat-inactivated foetal bovine serum (FBS; GIBCO/Invitrogen, Carlsbad, Calif.), 100 units/mL penicillin and 100 μg/mL streptomycin (Life technologies) at 37° C. in a humidified 5% CO2 incubator.
Reagents and buffers: Lipopolysaccharide (LPS, Sigma chemicals, USA), Phosphate buffered saline, RPMI, FBS
ELISA kit: Human TNF ELISA kit, Krishgen Biosciences, USA
Anti inflammatory activity was examined using human monocyte/macrophage cell line THP-Monocytes respond to lipopolysaccharides (LPS) by secreting proinflammatory cytokines. Tumour necrosis factor (TNF-α) is one of the principle cytokine which triggers a cascade of inflammatory reactions. The concentration of TNF-α was measured using an Enzyme linked Immunosorbent assay (ELISA). Reduction in TNF-α concentration indicates an anti inflammatory activity of the compound.
1×10^5 THP-1 cells were stimulated with 100 ng with lipopolysacharide (LPS, 0.1 μg/mL) to induce TNF-α secretion. Cells were pre treated with different concentrations of test materials (Thymoquinone, thymohydroquinone and a composition comprising thymohydroquinone) before LPS treatment. The cell supernatants were collected 24 hour after treatment and secreted TNF-α as estimated by cytokine ELISA as described by the manufacturer. Unstimulated cells were used as negative control. The limit of detection was <1 pg/mL.

[3] = Anti-glycation, Ribose-BSA method, vesperlysine-like AGE
Description: (§1) AGEs can be fluorescent as well as non fluorescent in nature. Typically the vesperlysine type of AGE have an excitation at 370-nm and emission at 440 nm, while pentosidine like AGE have an excitation at 335 nm and emission at 385 nm. The principle is based on the fact that ribose sugar and bovine serum albumin are mixed in specific ratio and incubated for 24 hours. Vesperlysine like AGE formed by the reaction was e estimated by the increase in fluorescence detected, at Ex/Em at 390/460 nm and pentosidines were detected at Ex/Em at 320/405 nm
(§2) Ribose—BSA method: 10 μl of various concentrations of samples were added to 40 μl of BSA (bovine serum albumin, 25 mg/ml stock) and 50 μl of D-Ribose (150 mg/ml stock) was added per well of black 96-well microplate and incubated for 24 h at 37° C. BSA was taken as the control. The AGEs (advanced glycation end product) formed were detected by the fluorescence at Ex/Em at 390/460 nm for vesperlysine and Ex/Em at 320/405 nm for pentosidine AGE.

[4] = Anti-glycation, Ribose-BSA method, pentosidine AGE
Description: as §1, §2

T1 sequence (P53341 whole entry): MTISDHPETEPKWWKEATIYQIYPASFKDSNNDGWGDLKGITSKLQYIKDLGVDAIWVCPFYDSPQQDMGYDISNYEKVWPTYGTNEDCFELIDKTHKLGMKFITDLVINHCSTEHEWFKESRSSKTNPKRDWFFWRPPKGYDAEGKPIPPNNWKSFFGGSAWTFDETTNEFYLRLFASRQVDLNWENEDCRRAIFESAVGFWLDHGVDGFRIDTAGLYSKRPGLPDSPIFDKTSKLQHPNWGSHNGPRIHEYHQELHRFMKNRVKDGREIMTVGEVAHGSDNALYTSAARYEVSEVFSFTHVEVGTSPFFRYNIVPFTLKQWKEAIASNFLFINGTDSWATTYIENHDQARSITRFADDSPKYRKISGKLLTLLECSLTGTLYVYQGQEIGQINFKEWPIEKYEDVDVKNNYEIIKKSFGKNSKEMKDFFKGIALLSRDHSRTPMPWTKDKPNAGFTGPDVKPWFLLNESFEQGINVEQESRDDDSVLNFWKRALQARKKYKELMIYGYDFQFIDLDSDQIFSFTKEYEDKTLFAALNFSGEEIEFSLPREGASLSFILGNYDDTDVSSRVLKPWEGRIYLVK

Row | SMILES | IC50 (α-glucosidase) | glucose uptake in Muscle cells [1] | glucose uptake in Adipocytes (Adipocytes) | IC50 of DPPH scavenging [2] | inhibition at 0.03 µg/mL (TNF-α) | inhibition at 0.06 µg/mL (TNF-α) | inhibition at 0.13 µg/mL (TNF-α) | cell viability (TNF-α; THP-1 cells in the TNF-α test) | IC50, inhibition of vesperlysine Ex/Em at 390/460 nM [3] | % inhibition of vesperlysine Ex/Em at 390/460 nm ([3]; 15.63 μg/mL) | % inhibition of vesperlysine Ex/Em at 390/460 nm ([3]; 31.25 μg/mL) | % inhibition of vesperlysine Ex/Em at 390/460 nm ([3]; 62.5 μg/mL) | % inhibition of vesperlysine Ex/Em at 390/460 nm ([3]; 125 μg/mL) | % inhibition of vesperlysine Ex/Em at 390/460 nm ([3]; 250 μg/mL) | IC50, Inhibition of pentosidine Ex/Em at 320/405 nM [4] | % Inhibition of pentosidine Ex/Em at 320/405 nm ([4]; 15.63 μg/mL) | % Inhibition of pentosidine Ex/Em at 320/405 nm ([4]; 31.25 μg/mL) | % Inhibition of pentosidine Ex/Em at 320/405 nm ([4]; 62.5 μg/mL) | % Inhibition of pentosidine Ex/Em at 320/405 nm ([4]; 125 μg/mL) | % Inhibition of pentosidine Ex/Em at 320/405 nm ([4]; 250 μg/mL)
1 | Cc1cc(O)c(C(C)C)cc1O [Thymohydroquinone, thymohydroquinone] | 433 µM | enhanced glucose uptake | enhanced glucose uptake | 1.78 µg/mL | 2.5% | 4.5% | 11.9% | without affecting the cell viability | 108.30 µg/mL | 23.03% | 34.06% | 43.83% | 52.28% | 60.42% | 65.89 µg/mL | 5.39% | 28.73% | 49.55% | 68.33% | 89.31%
2 | CC1=CC(=O)C(C(C)C)=CC1=O [Thymoquinone, thymoquinone, reference compound] | 2480 µM |  |  |  | 22% | 31% | 35% |  | 157.80 µg/mL | 0% | 38.55% | 40.81% | 44.54% | 56.69% | 142.70 µg/mL | 0% | 23.59% | 0.06% | 44.57% | 61.80%
